# Measured values published in patent publication US20090264342A1, “COMPOSITIONS AND METHODS FOR ANTIBIOTIC POTENTIATION AND DRUG DISCOVERY” (priority 2006, published 2009).
# Columns and labels:
# [1] = test system: E. coli MG1655; assay: Survival assay (CFU) of E. coli MG1655 recA+ / recA− after exposure to Nor; type: cell-based; conditions: wild type background, 3 hours of exposure to Nor 0.1 μg/mL
# Procedure: The ability of these fours strains to survive exposure to Nor was then tested. The experiment was performed as follows. Cultures were grown to early log phase in LB at 37° C. with shaking. At the 0 time point Nor was added to the cultures to a final concentration of 0.1 μg/mL. This concentration of Nor is just below the MIC for strain MG1655 under these growth conditions. Samples of the cells were collected and washed in PBS at 0, 30, 90 and 180 min time points. The number of viable cells was determined by plating the cells from each time point on LB agar and counting colonies. The CFU counts were normalized based on the time 0 time point inoculum for each culture (i.e., the CFU count obtained from the 0 time point inoculum was taken to represent 100% survival) and the log % survival was plotted (FIG. 3).
# The recA deletion caused a 10,000 fold increase in quinolone sensitivity in a wild type background after 3 hours of exposure to Nor. […] In addition, inhibiting the expression and/or activity of E. coli RecA (or its homolog in other bacteria) is expected to render bacterial strains that have acquired resistance to quinolones (e.g., due to mutation in one or more subunits of the bacterial gyrase or topoisomerase IV and/or due to increased copy number of a gene encoding one of these polypeptides) sensitive once again to these compounds.
# [2] = test system: SOS response (LexA auto-cleavage) in E. coli; assay: SOS induction, LexA-controlled GFP DNA damage sensor; type: cell-based; conditions: 5 μg/mL Amp, 5 μg/mL Kan, 25 ng/mL Nor; 3 hours after addition
# Procedure: FIG. 37 is a set of two graphs showing SOS induction in E. coli by bactericidal antibiotics. Activation of the SOS response was monitored using an engineered sensor construct that employs the LexA repressor for control of Green Fluorescent Protein (GFP) expression. Shown are representative GFP histogram measurements taken 3 hours after addition of a, bactericidal antibiotics (5 μg/mL Amp, 5 μg/mL Kan, 25 ng/mL Nor). b, Log change in CFU/mL of ΔrecA E. coli following exposure to 5 μg/mL Kanamycin (open diamonds), 25 ng/mL Norfloxacin (open triangles), and 5 μg/mL Ampicillin (open circles). For comparison, CFU/mL are also shown for widltype E. coli exposed to 5 μg/mL Kanamycin (diamonds), 25 ng/mL Norfloxacin (triangles), and 5 μg/mL Ampicillin (circles), as well as a lower concentration of norfloxacin in these experiments to highlight the significant increase in killing in a recA knockout.
# DNA damage sensor construction. The DNA sensor construct with ampicillin resistance was described previously (D. J. Dwyer et al., “Superoxide and hydroxyl radicals contribute to gyrase inhibitor-mediated cell death in E. coli”, 2007 accepted by Mol. Syst. Biol., which is incorporated herein by reference in its entirety).
# Hydroxyl radical and DNA damage sensor experiments using the flow cytometer. […]
# Hydroxyl radical are extremely toxic, and will readily damage membrane lipids, proteins and DNA. […]
# [3] = test system: recA promoter (prec::GFP) in MG1655; assay: Cell-based recA promoter::GFP reporter assay; design: species or system E. coli; conditions: recA+ bacteria with reporter construct, in the presence of norfloxacin
# Text: As discussed above, the recA promoter is induced when RecA becomes activated as a result of exposure to DNA damaging agents. The present Applicants hypothesized that exposure to a quinolone may have a similar effect on the recA promoter and that this effect could be exploited to develop a cell-based assay for inhibitors of RecA. A low copy reporter plasmid was used in which the recA promoter controls transcription of the mRNA encoding green fluorescent protein (GFP). The plasmid, referred to herein as prec::GFP, has been previously described (Ronen, 2002). See also Kuang, 2004. prec::GFP contains 2821707-2821893 of the E. coli MG1655 genome (numbering based on the sequenced E. coli genome as reported in Blattner, F. R., et al., Science, 277, pp. 1453-1474, 1997) cloned upstream of a promoterless GFPmut3 gene in a low copy pSC101 origin plasmid as described (Kalir, S., et al., Science, 292, pp. 2080-2083, 2001).
# The prec::GFP plasmid was introduced into MG1655 and MG1655 recA null strains and measured the fluorescence emitted by GFP in the presence or absence of quinolone as compared with background fluorescence detected from cultures of MG1655 lacking the plasmid. Briefly cells of these three strains were grown to early log phase in LB at 37° C. with shaking. […] After 60 minutes, fluorescence due to GFP expression from the reporter plasmid was measured using a spectrophotometer.
structure (smiles),measurement,setting,value
"CCn1cc(C(=O)O)c(=O)c2cc(F)c(N3CCNCC3)cc21 [Nor, norfloxacin]",increase in quinolone sensitivity caused by recA deletion,[1],"10,000 fold"
same,SOS activity (LexA-driven GFP expression),[2],significant increase in SOS activity
same,transcription of the recA:GFP reporter gene,[3],increased transcription of the reporter gene
